Measured values: ChEMBL document CHEMBL1667859 (Bioorg Med Chem, 2011)

Target: 5-hydroxytryptamine receptor 6 (Homo sapiens, UniProt P50406)
Sequence (P50406 whole entry): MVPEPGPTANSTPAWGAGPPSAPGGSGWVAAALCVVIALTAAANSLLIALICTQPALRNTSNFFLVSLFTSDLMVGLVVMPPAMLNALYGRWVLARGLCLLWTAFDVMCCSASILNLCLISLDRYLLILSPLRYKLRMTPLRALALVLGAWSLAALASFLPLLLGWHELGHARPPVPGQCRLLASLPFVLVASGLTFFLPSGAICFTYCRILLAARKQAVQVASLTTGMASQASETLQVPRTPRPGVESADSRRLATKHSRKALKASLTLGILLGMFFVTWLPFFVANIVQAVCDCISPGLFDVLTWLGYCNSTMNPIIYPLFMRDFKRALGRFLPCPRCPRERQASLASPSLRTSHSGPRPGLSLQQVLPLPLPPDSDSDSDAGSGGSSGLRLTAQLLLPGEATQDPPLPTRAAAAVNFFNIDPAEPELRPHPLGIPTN
Description: Antagonist activity at human recombinant 5HT6 receptor expressed in HEK293 cells assessed as inhibition of serotonin-induced cAMP accumulation after 2 hrs

Row | Structure (SMILES) | Ki
1 | CNc1nn2c(C)ccnc2c1S(=O)(=O)c1ccccc1 | 0.24 nM
2 | CNc1nn2c(C)cc(C)nc2c1S(=O)(=O)c1ccc(F)cc1 | 0.398 nM
3 | COCc1cc(C)n2nc(SC)c(S(=O)(=O)c3ccccc3)c2n1 | 3.24 nM
4 | CNc1nn2cccnc2c1S(=O)(=O)c1ccc(F)cc1 | 11.7 nM
5 | CNc1nn2cccnc2c1S(=O)(=O)c1cccc(Cl)c1 | 1.17 nM
6 | CNc1nn2c(COC)cc(C)nc2c1S(=O)(=O)c1ccccc1 | 7.59 nM
7 | CSc1nn2c(C)ccnc2c1S(=O)(=O)c1ccccc1 | 16.6 nM
8 | CSc1nn2cccnc2c1S(=O)(=O)c1ccccc1 | 115 nM
9 | CSc1nn2cccnc2c1S(=O)(=O)c1cccc(Cl)c1 | 15.1 nM
10 | CNc1nn2cccnc2c1S(=O)(=O)c1ccccc1 | 3.89 nM
11 | CSc1nn2ccc(C)nc2c1S(=O)(=O)c1ccc(F)c(Cl)c1 | 7.94 nM
12 | CNc1nn2ccc(C)nc2c1S(=O)(=O)c1ccccc1 | 1.45 nM
13 | CNc1nn2c(C)cc(C)nc2c1S(=O)(=O)c1ccc(OC)cc1 | 9.55 nM
14 | CNc1nn2c(C)cc(C)nc2c1S(=O)(=O)c1ccccc1 | 0.257 nM
15 | CNc1nn2c(C)cc(COC)nc2c1S(=O)(=O)c1ccccc1 | 0.269 nM
16 | CNc1nn2c(C)cc(CO)nc2c1S(=O)(=O)c1ccccc1 | 0.479 nM
17 | CSc1nn2cccnc2c1S(=O)(=O)c1ccc(F)cc1 | 132 nM
18 | COCc1cc(C)nc2c(S(=O)(=O)c3ccccc3)c(SC)nn12 | 155 nM
19 | CNc1nn2c(CO)cc(C)nc2c1S(=O)(=O)c1ccccc1 | 0.282 nM
20 | CSc1nn2cccnc2c1S(=O)(=O)c1ccc(F)c(Cl)c1 | 44.7 nM
21 | CSc1nn2ccc(C)nc2c1S(=O)(=O)c1ccccc1 | 16.6 nM
22 | CNc1nn2c(C)cc(C)nc2c1S(=O)(=O)c1ccc(O)cc1 | 2 nM

Second part, the molecule after the results:

Row | Ki | Structure (SMILES)
23 | 0.186 nM | CNc1nn2c(C)cc(C)nc2c1S(=O)(=O)c1cccc(Cl)c1
24 | 0.603 nM | CNc1nn2c(C)cc(C)nc2c1S(=O)(=O)c1ccc(F)c(Cl)c1
25 | 3.98 nM | CSc1nn2c(C)cc(C)nc2c1S(=O)(=O)c1ccc(O)cc1
26 | 0.562 nM | CSc1nn2c(CO)cc(C)nc2c1S(=O)(=O)c1ccccc1
27 | 1.2 nM | CSc1nn2c(C)cc(C)nc2c1S(=O)(=O)c1ccccc1
28 | 0.759 nM | CSc1nn2c(C)cc(C)nc2c1S(=O)(=O)c1cccc(Cl)c1
29 | 37.2 nM | CSc1nn2c(C)cc(C)nc2c1S(=O)(=O)c1ccc(N(C)C)cc1
30 | 2.14 nM | CSc1nn2c(C)cc(CO)nc2c1S(=O)(=O)c1ccccc1
31 | 6.76 nM | CSc1nn2c(C)cc(C)nc2c1S(=O)(=O)c1ccc(F)cc1
32 | 0.501 nM | CNc1nn2c(C)cc(C)nc2c1S(=O)(=O)c1cccc(F)c1
33 | 37.2 nM | COc1ccc(S(=O)(=O)c2c(SC)nn3c(C)cc(C)nc23)cc1
34 | 1.07 nM | CSc1nn2c(C)cc(C)nc2c1S(=O)(=O)c1cccc(F)c1
35 | 3.16 nM | CSc1nn2c(C)cc(C)nc2c1S(=O)(=O)c1ccc(Cl)cc1
36 | 3.8 nM | CSc1nn2c(C)cc(C)nc2c1S(=O)(=O)c1ccc(F)c(Cl)c1
